Assay [1] deals with T1, pig TRPM8 (Sus scrofa, UniProt F1SM15).
T1 construct: expressed in transfected cells; host or cells: CHO (pcDNA5/FRT/TO vector; hygromycin B and blasticidin selection)
Kind of assay: In vitro pig TRPM8 automated patch-clamp assay (SyncroPatch 384PE, CHO cells). Particulars: CHO cells expressing pig TRPM8, 28° C. In kind it is cell-based. In a few lines:
(§1)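 Whole-cell automated patch clamp on engineered CHO lines at 28 °C, held at −60 mV, with −80 to +80 mV ramps every 5 s; one compound concentration per well. Peak current minus pre-addition baseline was normalised to no-compound control and Emax, and EC50 was fitted; 200 μM menthol wells served as control.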

Assay [2] addresses T2, human TRPM8 (Homo sapiens, UniProt Q7Z2W7).
T2 construct: expressed in transfected cells; host or cells: CHO (p658 mammalian expression vector)
Kind of assay: In vitro human TRPM8 fluorescence calcium flux assay (recombinant CHO cells, Fluo4-AM, FDSS6000). In kind it is cell-based. As to conditions: recombinant CHO cells expressing human TRPM8; menthol-related EC50, normalized to 100 μM menthol. In a few lines: (§2)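 CHO cells stably expressing pig or human TRPM8, loaded with 2 μM Fluo4-AM in HBSS/20 mM HEPES/0.1% BSA/2.5 mM probenecid for 1 h at RT. Intracellular calcium read kinetically for 3 min after compound addition. EC50 from sixteen-point curves, normalized to 100 μM menthol maximal response.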
In general terms: Calcium flux is commonly read through the fluorescence of an indicator in the cells.

In assay [3] the target is T1, pig TRPM8. Kind of assay: In vitro pig TRPM8 fluorescence calcium flux assay (recombinant CHO cells, Fluo4-AM, FDSS6000). As to conditions: recombinant CHO cells expressing pig TRPM8; menthol-related EC50, normalized to 100 μM menthol. In kind it is cell-based. In a few lines: as §2
For assay [4], the system named is Male castrated German Landrace pigs. Kind of assay: In vivo assay: enhancement of swallowing in anesthetized pigs (manometry with pressure probe in the mouth). As to conditions: Sus scrofa, anesthetized pig, dose per pig 10 mg, injected in 1 ml vehicle into the oral cavity. The protocol:
For testing the efficacy of TRPM8 agonists for enhancing swallowing, experiment using the pig model can be conducted according to assay described below. The efficacy can be compared to a vehicle control.
Male castrated German Landrace pigs (weight range of 20 to 35 kg) were used. Anesthesia was induced by injecting 20 ml of a urethane solution (20 g/100 mL dissolved in saline) into an ear vein corresponding to a dose of around […]. Anesthesia was maintained by continuous infusion of 15-20 mL per hour of the urethane solution, which was infused into an epigastric vein, and additionally by infusion of Zoletil and Rompun (500 mg Zoletil is disssovled in 10 ml of Rompun 2%, then diluted 1:10 with saline and 3-5 mL per hour of this diluted solution. Bupivacain 0.5% JENAPHARM@ was injected for additional infiltration anesthesia. Anesthesia was monitored via pulsoximetry (ear) and regular reflex testing for pain. Body temperature was monitored and maintained by an infrared lamp.
Preparation of pigs: Swallowing responses were assessed by manometry with a pressure probe placed into the mouth of the pig. The pressure probe consisted of a plastic tube (diameter 3.3 mm) to which a small balloon was attached. The tube was advanced about 12-14 cm into the mouth related to the snout. The balloon was then inflated with air to yield a pressure of 20-30mbar (vehicle). Ideally a swallowing response with 1 ml of fluid raised this pressure by 20-50mbar which was then referred to as the swallowing pressure (the increment of this pre-set pressure in the inflated balloon after swallowing) to be further enhanced by an effective test drug.
The free end of the tube was connected to a differential pressure transducer MPX Type 399/2 (Hugo Sachs Elektronik-Harvard Apparatus) and a Hugo Sachs Plugsys-amplifier system. The biological signals were recorded by a Hugo Sachs Plugsys-amplifier system and continuously stored on a computer hard disk by an on line data acquisition and analysis system (Hem 4.2 Notocord Systems, Croissy-sur-Seine, France).
A second tube referred to as injection tube was placed dorsally to the manometer tube to enable the administration of the vehicle that induced the baseline swallowing activity, or of this same vehicle containing the test compound.
Induction and assessment of swallowing activity: 0.5h after anesthesia induction 1 ml of a fluid or the vehicle for the test drug was injected into the injection tube placed into the oral cavity. The number of swallows was counted and the highest-pressure increment was registered. Challenges with vehicle were repeated at intervals of 30 min until two consecutive vehicle challenges show an about equal swallowing response. The next challenge was the vehicle loaded with the test drug (otherwise same procedure). The efficacy of a compound to enhance swallowing as shown in Table 7 was expressed as the % increase in pressure and frequency of swallowing after administration of the compound compared to the pressure and frequency recorded for its vehicle administered just before.

Assay [5] has as its target T2, human TRPM8. Kind of assay: In vitro human TRPM8 automated patch-clamp assay (SyncroPatch 384PE, CHO cells). In kind it is cell-based. As to conditions: CHO cells expressing human TRPM8, 28° C. In short, it runs like this: as §1

Counter-ions that a name gives are not always drawn. Like-named read-outs stand apart in the source and are kept apart here.

T2 sequence (Q7Z2W7 whole entry): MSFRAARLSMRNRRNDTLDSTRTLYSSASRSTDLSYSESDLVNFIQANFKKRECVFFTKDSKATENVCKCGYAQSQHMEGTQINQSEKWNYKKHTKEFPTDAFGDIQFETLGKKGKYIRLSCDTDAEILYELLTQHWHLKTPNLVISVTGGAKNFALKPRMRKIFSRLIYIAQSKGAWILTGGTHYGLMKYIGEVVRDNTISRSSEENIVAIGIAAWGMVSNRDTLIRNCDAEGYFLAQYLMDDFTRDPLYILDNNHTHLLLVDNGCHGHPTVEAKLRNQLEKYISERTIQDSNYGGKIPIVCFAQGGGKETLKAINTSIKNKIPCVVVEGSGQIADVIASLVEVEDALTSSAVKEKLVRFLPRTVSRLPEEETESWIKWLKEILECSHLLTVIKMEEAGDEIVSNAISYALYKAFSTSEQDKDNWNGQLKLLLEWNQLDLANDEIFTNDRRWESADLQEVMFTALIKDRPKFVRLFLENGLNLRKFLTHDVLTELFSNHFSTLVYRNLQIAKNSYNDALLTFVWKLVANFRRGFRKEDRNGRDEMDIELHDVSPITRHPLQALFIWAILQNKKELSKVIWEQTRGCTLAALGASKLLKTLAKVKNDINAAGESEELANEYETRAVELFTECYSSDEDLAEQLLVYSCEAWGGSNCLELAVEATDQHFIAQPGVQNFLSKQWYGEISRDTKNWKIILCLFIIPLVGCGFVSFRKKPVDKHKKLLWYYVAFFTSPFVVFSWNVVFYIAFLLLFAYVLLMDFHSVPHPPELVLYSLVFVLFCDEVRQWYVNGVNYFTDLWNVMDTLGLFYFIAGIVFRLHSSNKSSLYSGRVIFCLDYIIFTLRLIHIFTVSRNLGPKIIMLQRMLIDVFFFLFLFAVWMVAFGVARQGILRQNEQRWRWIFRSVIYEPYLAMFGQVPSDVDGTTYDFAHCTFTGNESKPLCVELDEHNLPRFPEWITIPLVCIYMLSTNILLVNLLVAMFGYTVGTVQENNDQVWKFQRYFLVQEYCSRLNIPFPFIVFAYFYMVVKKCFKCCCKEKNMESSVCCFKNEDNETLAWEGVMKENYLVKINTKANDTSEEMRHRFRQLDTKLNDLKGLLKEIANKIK
T1 sequence (F1SM15 1-1104): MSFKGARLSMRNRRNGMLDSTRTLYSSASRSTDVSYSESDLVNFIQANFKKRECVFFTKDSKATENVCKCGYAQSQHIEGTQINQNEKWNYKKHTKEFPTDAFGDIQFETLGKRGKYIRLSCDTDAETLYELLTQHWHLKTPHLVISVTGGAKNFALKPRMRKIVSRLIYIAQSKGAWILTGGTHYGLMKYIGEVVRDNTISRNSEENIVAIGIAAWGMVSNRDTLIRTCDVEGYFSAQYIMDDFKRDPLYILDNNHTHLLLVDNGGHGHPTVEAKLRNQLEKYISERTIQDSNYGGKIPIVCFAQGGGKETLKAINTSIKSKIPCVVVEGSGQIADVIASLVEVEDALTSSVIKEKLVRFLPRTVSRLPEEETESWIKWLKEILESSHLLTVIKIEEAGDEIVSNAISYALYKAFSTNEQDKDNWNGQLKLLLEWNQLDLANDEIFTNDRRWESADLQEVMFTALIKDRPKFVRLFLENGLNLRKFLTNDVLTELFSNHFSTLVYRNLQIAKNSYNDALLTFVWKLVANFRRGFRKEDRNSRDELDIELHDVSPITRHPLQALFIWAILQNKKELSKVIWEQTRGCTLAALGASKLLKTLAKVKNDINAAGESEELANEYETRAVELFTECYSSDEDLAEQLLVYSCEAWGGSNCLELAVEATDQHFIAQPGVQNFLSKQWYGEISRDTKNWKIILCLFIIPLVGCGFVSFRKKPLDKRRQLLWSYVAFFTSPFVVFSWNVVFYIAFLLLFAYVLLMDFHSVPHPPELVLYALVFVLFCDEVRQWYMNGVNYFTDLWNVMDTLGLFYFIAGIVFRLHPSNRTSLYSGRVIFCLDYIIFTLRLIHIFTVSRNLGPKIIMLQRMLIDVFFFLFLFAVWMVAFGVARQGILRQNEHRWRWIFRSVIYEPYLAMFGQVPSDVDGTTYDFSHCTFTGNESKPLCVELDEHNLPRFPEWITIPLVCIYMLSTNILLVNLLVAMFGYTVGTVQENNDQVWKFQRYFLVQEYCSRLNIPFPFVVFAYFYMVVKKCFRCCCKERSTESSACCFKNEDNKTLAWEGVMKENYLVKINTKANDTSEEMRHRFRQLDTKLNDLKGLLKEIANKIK

As a reminder, the EC50 is the concentration needed to bring the measured effect to its halfway point. On to `COC(=O)c1ccc(CCNC(=O)[C@]2(O)C[C@H](C)CC[C@H]2C(C)C)cc1` [Example 108, methyl 4-(2-((1S,2S,5R)-1-hydroxy-2-isopropyl-5-methylcyclohexane-1-carboxamido)ethyl)benzoate], for which the values for the EC50 on pig TRPM8 [1], on human TRPM8 [2] and at pig TRPM8 [3] were above 10000 nM, 211 nM and 73 nM, respectively. The change in vivo at 10 mg in assay [4] (frequency of swallowing compared with vehicle administered just before, read-out: % increase frequence vs vehicle) is 114%; in assay [4] (swallowing pressure compared with vehicle administered just before, read-out: % increase pressure vs vehicle), 169%.
With `CC(C)[C@@H]1CC[C@@H](C)C[C@@]1(O)C(=O)NCCc1cccc(C(=O)OCCN)c1` [Example 16, 2-aminoethyl 3-(2-((1S,2S,5R)-1-hydroxy-2-isopropyl-5-methylcyclohexane-1-carboxamido)ethyl) benzoate hydrochloride], the EC50 on human TRPM8 [5] was 1290 nM; on pig TRPM8 [1] it was 2370 nM; at human TRPM8 [2], 16 nM; at pig TRPM8 [3], 13 nM.
Consider `CC(C)[C@@H]1CC[C@@H](C)C[C@@]1(O)C(=O)NCCOc1ccccc1` [Example 120, (1S,2S,5R)-1-hydroxy-2-isopropyl-5-methyl-N-(2-phenoxyethyl)cyclohexanecarboxamide], for which the EC50 was 3600 nM at human TRPM8 [5], 5600 nM at pig TRPM8 [1], 31.1 nM at human TRPM8 [2] and 13.9 nM at pig TRPM8 [3].
On to `CC(C)[C@@H]1CC[C@@H](C)C[C@@]1(O)C(=O)NC[C@H](O)c1cccc(CO)c1` [Example 43, (1S,2S,5R)-1-hydroxy-N-((2R)-hydroxy-2-(3-(hydroxymethyl)phenyl)ethyl)-2-isopropyl-5-methylcyclohexane-1-carboxamide], for which the EC50 on human TRPM8 [5] came to 4000 nM; at pig TRPM8 [1], 3970 nM; at human TRPM8 [2], 191 nM; at pig TRPM8 [3], 56.9 nM.
For `COC(=O)COc1ccccc1C(O)CNC(=O)[C@]1(O)C[C@H](C)CC[C@H]1C(C)C` (stereo partly drawn) [Example 36, methyl 2-(2-(1-hydroxy-2-((1S,2S,5R)-1-hydroxy-2-isopropyl-5-methylcyclohexane-1-carboxamido)ethyl)phenoxy)acetate] the same measures were 1880 nM, 3810 nM, 47 nM and 36 nM.
For `COC(=O)[C@@H](N)Cc1ccccc1CCNC(=O)[C@]1(O)C[C@H](C)CC[C@H]1C(C)C` [Example 19, methyl (S)-2-amino-3-(2-(2-((1S,2S,5R)-1-hydroxy-2-isopropyl-5-methylcyclohexane-1-carboxamido)ethyl)phenyl)propanoate] the same measures were 1700 nM, 1520 nM, 7.1 nM and 19.9 nM.
For `COC(=O)[C@@H](N)COc1cccc(CCNC(=O)[C@]2(O)C[C@H](C)CC[C@H]2C(C)C)c1` [Example 27, methyl O-(3-(2-((1S,2S,5R)-1-hydroxy-2-isopropyl-5-methylcyclohexane-1-carboxamido)ethyl)phenyl)-L-serinate], the EC50 was determined as 2400 nM on human TRPM8 [5], 4000 nM on pig TRPM8 [1], 3.1 nM at human TRPM8 [2] and 10.3 nM on pig TRPM8 [3].
For `CC(C)[C@@H]1CC[C@@H](C)C[C@@]1(O)C(=O)NC[C@H](F)c1ccccc1` [Example 179, (1S,2S,5R)—N-((2R)-2-fluoro-2-phenylethyl)-1-hydroxy-2-isopropyl-5-methylcyclohexane-1-carboxamide] the same measures were 590 nM, 598 nM, 1.1 nM and 0.6 nM.
For `COC(=O)c1cccc(C(O)CNC(=O)[C@]2(O)C[C@H](C)CC[C@H]2C(C)C)c1` (stereo partly drawn) [Example 34, methyl 3-(1-hydroxy-2-((1S,2S,5R)-1-hydroxy-2-isopropyl-5-methylcyclohexane-1-carboxamido)ethyl)benzoate] the same measures were 4590 nM, 3210 nM, 97 nM and 80 nM.
For `CC(C)[C@@H]1CC[C@@H](C)C[C@@]1(O)C(=O)NCCc1ccc(CO)cc1` [Example 109, (1S,2S,5R)-1-hydroxy-N-(4-(hydroxymethyl)phenethyl)-2-isopropyl-5-methylcyclohexane-1-carboxamide] the same measures were 2200 nM, 1770 nM, 22.4 nM and 11.9 nM.
As to `COc1cc(CO)ccc1OC(=O)CNC(=O)[C@]1(O)C[C@H](C)CC[C@H]1C(C)C` [Example 79, 4-(hydroxymethyl)-2-methoxyphenyl ((1S,2S,5R)-1-hydroxy-2-isopropyl-5-methylcyclohexane-1-carbonyl)glycinate], the EC50 was determined as 5500 nM on human TRPM8 [5], 5160 nM on pig TRPM8 [1], 84.5 nM on human TRPM8 [2] and 57.6 nM on pig TRPM8 [3].
For `CC(C)[C@@H]1CC[C@@H](C)C[C@@]1(O)C(=O)NCCOC(=O)c1ccccc1` [Example 111, 2-((1S,2S,5R)-1-hydroxy-2-isopropyl-5-methylcyclohexane-1-carboxamido)ethyl benzoate] the same measures were 5100 nM, 5070 nM, 72.7 nM and 25.1 nM.
The like results for `COC(=O)COc1cccc(C(O)CNC(=O)[C@]2(O)C[C@H](C)CC[C@H]2C(C)C)c1` (stereo partly drawn) [Example 33, methyl 2-(3-(1-hydroxy-2-((1S,2S,5R)-1-hydroxy-2-isopropyl-5-methylcyclohexane-1-carboxamido)ethyl)phenoxy)acetate] were, in that order, 4200 nM, 4310 nM, 65 nM and 38 nM.
For `CC(C)[C@@H]1CC[C@@H](C)C[C@@]1(O)C(=O)NCC(=O)c1ccc(F)c(F)c1` [Example 136, (1S,2S,5R)-N-[2-(3,4-difluorophenyl)-2-oxo-ethyl]-1-hydroxy-2-isopropyl-5-methyl-cyclohexanecarboxamide] the same measures were 610 nM, 510 nM, 2.7 nM and 1.3 nM.
With `CC(C)[C@@H]1CC[C@@H](C)C[C@@]1(O)C(=O)NCCc1ccc(O)cc1` [Example 117, (1S,2S,5R)-1-hydroxy-N-[2-(4-hydroxyphenyl)ethyl]-2-isopropyl-5-methyl-cyclohexanecarboxamide], the EC50 on human TRPM8 [5] came out at 2500 nM; at pig TRPM8 [1] it was 2330 nM; at human TRPM8 [2], 17.8 nM; on pig TRPM8 [3], 4.5 nM.
For the molecule `CC(C)[C@@H]1CC[C@@H](C)C[C@@]1(O)C(=O)NC[C@H](O)c1cccc(O)c1` [Example 41, (1S,2S,5R)-1-hydroxy-N-((2R)-hydroxy-2-(3-hydroxyphenyl)ethyl)-2-isopropyl-5-methylcyclohexane-1-carboxamide], the EC50 at human TRPM8 [5] came to 1100 nM; at pig TRPM8 [1], 5110 nM; on human TRPM8 [2] it was 195 nM; on pig TRPM8 [3] it was 74.5 nM.
The like results for `CC(C)[C@@H]1CC[C@@H](C)C[C@@]1(O)C(=O)NCC(O)c1cccc(O)c1` (stereo partly drawn) [Example 32, (1S,2S,5R)-1-hydroxy-N-(2-hydroxy-2-(3-hydroxyphenyl)ethyl)-2-isopropyl-5-methylcyclohexane-1-carboxamide] were, in that order, 1230 nM, 507 nM, 3 nM and 3 nM.

The record behind these values is patent US20240124408A1 (Sanofi, priority 2020, published 2024).
